Assay results: EP3338554A1, “COMPOSITION AND METHOD FOR PREVENTING DEPOSIT FORMATION IN A DRIP IRRIGATION SYSTEM” (Evonik Degussa GmbH, priority 2016, dated 2018)

Experiment: Calcium sulfate precipitation test of NACE standard TM0374-2007 (scale inhibition efficiency)
Protocol: The efficiency for preventing the precipitation of calcium sulfate from aqueous solution was determined with the calcium sulfate precipitation test of NACE standard TM0374-2007. A composition prepared as in example 1 was added in amounts providing the concentrations of hydrogen peroxide and HEDP in the test brine given in table 4. The hydrogen peroxide and the HEDP used for making the composition were tested for comparison.

Row | Structure (SMILES) | % inhibition in calcium sulfate precipitation test (HEDP 1 ppm alone) [%] | % inhibition in calcium sulfate precipitation test (HEDP 5 ppm alone) [%] | % inhibition in calcium sulfate precipitation test (HEDP 10 ppm alone) [%] | % inhibition in calcium sulfate precipitation test (hydrogen peroxide 10 ppm alone) [%] | % inhibition in calcium sulfate precipitation test (hydrogen peroxide 50 ppm alone) [%] | % inhibition in calcium sulfate precipitation test (hydrogen peroxide 100 ppm alone) [%]
1 | CC(O)(P(=O)(O)O)P(=O)(O)O [HEDP, 1-hydroxyethylidene-1,1-diphosphonic acid] | 39 | 77 | 74 | – | – | –
2 | OO [Hydrogen peroxide, hydrogen peroxide] | – | – | – | -8 | -9 | -9
